As a reminder, the inhibition is the percentage by which the read-out fell short of the control. Read a low inhibition as a response near the control. The term IC50 denotes the concentration at which inhibition is half-maximal. The low end stands for higher potency, the high end for lower potency.

Results on 27 compounds are retold here after US12195469B2, “Compounds having PDE9A inhibitory activity, and pharmaceutical uses thereof” (KOREA RESEARCH INSTITUTE OF CHEMICAL TECHNOLOGY, priority 2018, dated 2025).

PDE9A, sequence (O76083 whole entry): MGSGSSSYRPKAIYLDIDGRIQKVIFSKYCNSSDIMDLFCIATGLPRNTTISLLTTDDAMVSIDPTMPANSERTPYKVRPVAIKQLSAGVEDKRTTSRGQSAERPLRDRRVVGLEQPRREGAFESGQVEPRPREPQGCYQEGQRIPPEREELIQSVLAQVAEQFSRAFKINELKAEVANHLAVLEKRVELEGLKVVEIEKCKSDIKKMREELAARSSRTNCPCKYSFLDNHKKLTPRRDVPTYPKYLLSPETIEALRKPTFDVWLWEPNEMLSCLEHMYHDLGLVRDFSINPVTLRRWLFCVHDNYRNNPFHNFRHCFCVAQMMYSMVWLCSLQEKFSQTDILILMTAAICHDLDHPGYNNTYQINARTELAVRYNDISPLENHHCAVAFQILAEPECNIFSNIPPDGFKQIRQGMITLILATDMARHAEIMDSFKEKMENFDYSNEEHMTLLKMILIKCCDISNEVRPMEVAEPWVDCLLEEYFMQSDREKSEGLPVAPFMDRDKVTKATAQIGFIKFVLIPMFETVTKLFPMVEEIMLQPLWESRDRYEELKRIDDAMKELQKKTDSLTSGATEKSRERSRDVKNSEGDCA

In one assay the target is PDE9A (Homo sapiens (Human), UniProt O76083). The assay can be described thus: PDE9A inhibition, fluorescence polarization assay (IMAP-FP screening express kit). The format is biochemical. To be noted: 10 μM of the compound. Here is the method:
The inhibitory activity of the representative compounds according to the present invention against phosphodiesterase 9A was tested based on the polarization assay (IMAP-FP screening express kit) provided by MDS (MDS Analytical Technologies, Sunyvale, CA, USA). As a buffer solution, a reaction solution (a reaction solution containing 0.01% Tween 20 provided by MDS was diluted 5 times, then 5 mM DTT is added) and a polarization detection solution (binding solution A and B provided by MDS were mixed at a ratio of 3:1 and IMAP binding reagent 1/600 was added) were prepared. 100 μM of the substrate (Fl-cGMP substrate; MDS) and 3.6 μg/ml of the enzyme PDE9A (ab54113; abcam) were prepared. 3.6 μg/ml PDE9A and 100 μM substrate were diluted to 20 ng/ml (final reaction concentration: 5 ng/ml) and 400 nM (final reaction concentration: 100 nM), respectively. The buffer solution used for all dilution and preparation processes was 1× reaction solution with 1 mM DTT added, and the polarization detection solution was used to induce polarization at the end.
The prepared samples were dispensed on black microplates (Multiwell 384 well plates, #3573, Corning Life Sciences, Lowell, MA, USA) using a 16-channel pipette (multi 16-channel, Finnpipette, Thermo Scientific, Essex, UK). The total reaction volume per well is 20 μl. At this time, 10 μl of 2% DMSO, 5 μl of substrate solution, and 5 μl of reaction solution were used as a negative control, and 10 μl of 2% DMSO, 5 μl of substrate solution, and 5 μl of PDE9A solution were used as a positive control. As the experimental group, 10 μl of the compound prepared in Example, 5 μl of the substrate solution, and 5 μl of the PDE9A solution were used. After pretreatment between the compound and the enzyme was performed for about 10 minutes before the enzyme-substrate reaction, 5 μl of cGMP was added to induce the enzyme reaction. During the reaction, each compound, enzyme, and substrate occupied 50%, 25%, and 25% of the total volume, respectively, and they were prepared at high concentrations of 2, 4, and 4 times, respectively, immediately before addition. After the enzymatic reaction, it was shaken lightly for 1 minute and the enzyme reaction was induced at room temperature for 1 hour. Then, 60 μl of a polarization detection solution prepared in advance was added to induce polarization.
Nanoparticles composed of trivalent metal ions are mixed in the fluorescence detection solution, which combines with phosphoric acid expose by enzymatic reaction to increase the molecular weight and induce polarization. After leaving for 2 hours at room temperature, the polarization (Fluorescence Polarization, FP) value was measured using a multilabel counter (Envision, PerkinElmer, Turku, Finland) (emission wavelength: P-535 nm, S-535 nm, excitation wavelength: 480 nm), and the result was expressed as an IC50 value, which is the concentration of the compound that inhibited PDE9A by 50% in vitro (Table 2).
In general terms: Polarisation of emitted light reports the rotation of a fluorescent probe.
Consider `O=c1[nH]c(SCc2nc3ccc([N+](=O)[O-])cc3o2)nc2c1cnn2-c1ccccc1` [Example 28, 6-(((6-nitrobenzo[d]oxazol-2-yl)methyl)thio)-1-phenyl-1,5-dihydro-4H-pyrazolol[3,4-d]pyrimidin-4-one], for which the inhibition at 10 µM turned out to be 51.5%.
Consider `O=c1[nH]c(SCc2nc3cc(Cl)c([N+](=O)[O-])cc3o2)nc2c1cnn2-c1ccccc1` [Example 31], for which testing at 10 µM gave an inhibition of 38.9%.

Still in this assay, the particulars now being: Fl-cGMP substrate 100 nM, PDE9A 5 ng/ml, 1 hour at room temperature.
Consider `CC(C)(C)c1ccc2oc(CSc3nc4c(cnn4-c4ccccc4)c(=O)[nH]3)nc2c1` [Example 27, 6-(((5-(tert-butyl)benzo[d]oxazol-2-yl)methyl)thio)-1-phenyl-1,5-dihydro-4H-pyrazolo[3,4-d]pyrimidin-4-one], for which it took 6630 nM to reach half-maximal inhibition (IC50).
Regarding `O=c1[nH]c(SCc2nc3ccccc3o2)nc2c1cnn2C1CC1` [Example 10, 6-((benzo[d]oxazol-2-ylmethyl)thio)-1-cyclopropyl-1,5-dihydro-4H-pyrazolo[3,4-d]pyrimidin-4-one], the IC50 was found to be 220 nM.
`Cc1ccc2oc(CSc3nc4c(cnn4-c4ccccc4)c(=O)[nH]3)nc2c1` [Example 3, 6-(((5-methylbenzo[d]oxazol-2-yl)methyl)thio)-1-phenyl-1,5-dihydro-4H-pyrazolo[3,4-d]pyrimidin-4-one] had an IC50 of 81 nM.
Still for that read-out and setting: with `O=c1[nH]c(SCc2nc3c([N+](=O)[O-])cccc3o2)nc2c1cnn2C1CCC(F)(F)CC1` [Example 39, 1-(4,4-difluorocyclohexyl)-6-(((4-nitrobenzo[d]oxazol-2-yl)methyl)thio)-1,5-dihydro-4H-pyrazolo[3,4-d]pyrimidin-4-one] the figure was 77 nM; with `O=c1[nH]c(SCc2nc3c([N+](=O)[O-])cccc3o2)nc2c1cnn2C1CCOCC1` [Example 50, 6-(((4-nitrobenzo[d]oxazol-2-yl)methyl)thio)-1-(tetrahydro-2H-pyran-4-yl)-1,5-dihydro-4H-pyrazolo[3,4-d]pyrimidin-4-one], 130 nM; with `Cc1ccc2nc(C(C)Sc3nc4c(cnn4C4CCOCC4)c(=O)[nH]3)oc2c1` (stereo not drawn) [Example 23, 6-((1-(6-methylbenzo[d]oxazol-2-yl)ethyl)thio)-1-(tetrahydro-2H-pyran-4-yl)-1,5-dihydro-4H-pyrazolo[3,4-d]pyrimidin-4-one], 2 nM.
On the same count and under the same terms, with `O=c1[nH]c(SCc2nc3cc(Cl)cc(Cl)c3o2)nc2c1cnn2C1CCOCC1` [Example 54, 6-(((5,7-dichlorobenzo[d]oxazol-2-yl)methyl)thio)-1-(tetrahydro-2H-pyran4-yl)-1,5-dihydro-4H-pyrazolo[3,4-d]pyrimidin-4-one] the figure was 19 nM; with `Cc1cccc2oc(CSc3nc4c(cnn4C4CCOCC4)c(=O)[nH]3)nc12` [Example 52, 6-(((4-methylbenzo[d]oxazol-2-yl)methyl)thio)-1-(tetrahydro-2H-pyran-4-yl)-1,5-dihydro-4H-pyrazolo[3,4-d]pyrimidin-4-one], 17 nM; with `COc1ccc2nc(CSc3nc4c(cnn4C4CCC(F)(F)CC4)c(=O)[nH]3)oc2c1` [Example 46, 1-(4,4-difluorocyclohexyl)-6-(((6-methoxybenzo[d]oxazol-2-yl)methyl)thio)-1,5-dihydro-4H-pyrazolo[3,4-d]pyrimidin-4-one], 3 nM.
Compound `O=c1[nH]c(SCc2nc3cc(Cl)cc(Cl)c3o2)nc2c1cnn2C1CCC(F)(F)CC1` [Example 43, 6-(((5,7-dichlorobenzo[d]oxazol-2-yl)methyl)thio)-1-(4,4-difluorocyclohexyl)-1,5-dihydro-4H-pyrazolo[3,4-d]pyrimidin-4-one] came in with a half-maximal inhibitory concentration (IC50) of 120 nM.
Consider `O=c1[nH]c(SCc2nc3cc([N+](=O)[O-])ccc3o2)nc2c1cnn2C1CCC(F)(F)CC1` [Example 38, 1-(4,4-difluorocyclohexyl)-6-(((5-nitrobenzo[d]oxazol-2-yl)methyl)thio)-1,5-dihydro-4H-pyrazolo[3,4-d]pyrimidin-4-one], for which the IC50 was 45 nM.
`CC(Sc1nc2c(cnn2-c2ccccc2)c(=O)[nH]1)c1nc2ccccc2o1` (stereo not drawn) [Example 19, 6-((1-(benzo[d]oxazol-2-yl)ethyl)thio)-1-phenyl-1,5-dihydro-4H-pyrazolo[3,4-d]pyrimidin-4-one] returned an IC50 of 28 nM.
For `COc1ccc2nc(CSc3nc4c(cnn4C4CCOCC4)c(=O)[nH]3)oc2c1` [Example 56, 6-(((6-methoxybenzo[d]oxazol-2-yl)methyl)thio)-1-(tetrahydro-2H-pyran-4-yl)-1,5-dihydro-4H-pyrazolo[3,4-d]pyrimidin-4-one], 3 nM corresponded to half-maximal inhibition (IC50).
Turning to `Cc1ccc2nc(C(C)Sc3nc4c(cnn4C4CCSCC4)c(=O)[nH]3)oc2c1` (stereo not drawn) [Example 24, 6-((1-(6-methylbenzo[d]oxazol-2-yl)ethyl)thio)-1-(tetrahydro-2H-thiopyran-4-yl)-1,5-dihydro-4H-pyrazolo[3,4-d]pyrimidin-4-one], half-maximal inhibition (IC50) required 5 nM.
`O=c1[nH]c(SCc2nc3cc(C(F)(F)F)ccc3o2)nc2c1cnn2-c1ccccc1` [Example 36, 1-phenyl-6-(((5-(trifluoromethyl)benzo[d]oxazol-2-yl)methyl)thio)-1,5-dihydro-4H-pyrazolo[3,4-d]pyrimidin-4-one] registered a half-inhibitory concentration (IC50) of 34100 nM.
On to `Cc1ccc2nc(CSc3nc4c(cnn4-c4ccccc4)c(=O)[nH]3)oc2c1` [Example 5, 6-(((6-methylbenzo[d]oxazol-2-yl)methyl)thio)-1-phenyl-1,5-dihydro-4H-pyrazolol[3,4-d]pyrimidin-4-one], for which it took 49 nM to reach half-maximal inhibition (IC50).
Compound `COc1ccc2oc(CSc3nc4c(cnn4C4CCC(F)(F)CC4)c(=O)[nH]3)nc2c1` [Example 45, 1-(4,4-difluorocyclohexyl)-6-(((5-methoxybenzo[d]oxazol-2-yl)methyl)thio)-1,5-dihydro-4H-pyrazolo[3,4-d]pyrimidin-4-one] gave an IC50 of 8 nM.
In the case of `Cc1cccc2oc(CSc3nc4c(cnn4-c4ccccc4)c(=O)[nH]3)nc12` [Example 26, 6-(((4-methylbenzo[d]oxazol-2-yl)methyl)thio)-1-phenyl-1,5-dihydro-4H-pyrazole[3,4-d]pyrimidin-4-one], the IC50 amounted to 140 nM.
On to `O=c1[nH]c(SCc2nc3ccccc3o2)nc2c1cnn2C1CCCCC1` [Example 12, 6-((benzo[d]oxazol-2-ylmethyl)thio)-1-cyclohexyl-1,5-dihydro-4H-pyrazolol[3,4-d]pyrimidin-4-one], for which the IC50 came to 4 nM.
Regarding `O=c1[nH]c(SCc2nc3ccc([N+](=O)[O-])cc3o2)nc2c1cnn2C1CCC(F)(F)CC1` [Example 37, 1-(4,4-difluorocyclohexyl)-6-(((6-nitrobenzo[d]oxazol-2-yl)methyl)thio)-1,5-dihydro-4H-pyrazolo[3,4-d]pyrimidin-4-one], it took 74 nM to reach half-maximal inhibition (IC50).
Consider `O=c1[nH]c(SCc2nc3cc(Cl)ccc3o2)nc2c1cnn2-c1ccccc1` [Example 6, 6-(((5-chlorobenzo[d]oxazol-2-yl)methyl)thio)-1-phenyl-1,5-dihydro-4H-pyrazolo[3,4-d]pyrimidin-4-one], for which inhibition was half-maximal at 190 nM (IC50).
As to `CC(C)(C)c1ccc2oc(CSc3nc4c(cnn4C4CCC(F)(F)CC4)c(=O)[nH]3)nc2c1` [Example 42, 6-(((5-(tert-butyl)benzo[d]oxazol-2-yl)methyl)thio)-1-(4,4-difluorocyclohexyl)-1,5-dihydro-4H-pyrazolo[3,4-d]pyrimidin-4-one], the IC50 was 130 nM.
The same measure, in the same setting: with `O=c1[nH]c(SCc2nc3c([N+](=O)[O-])cccc3o2)nc2c1cnn2-c1ccccc1` [Example 30, 6-(((4-nitrobenzo[d]oxazol-2-yl)methyl)thio)-1-phenyl-1,5-dihydro-4H-pyrazolo[3,4-d]pyrimidin-4-one] the figure was 1720 nM.
In turn, `O=c1[nH]c(SCc2nc3ccc([N+](=O)[O-])cc3o2)nc2c1cnn2C1CCOCC1` [Example 48, 6-(((6-nitrobenzo[d]oxazol-2-yl)methyl)thio)-1-(tetrahydro-2H-pyran-4-yl)-1,5-dihydro-4H-pyrazolo[3,4-d]pyrimidin-4-one] displayed an IC50 of 23 nM.
The compound `Cc1ccc2nc(CSc3nc4c(cnn4C4CC4)c(=O)[nH]3)oc2c1` [Example 17, 6-(((6-methylbenzo[d]oxazol-2-yl)methyl)thio)-1-cyclopropyl-1,5-dihydro-4H-pyrazolo[3,4-d]pyrimidin-4-one] had an IC50 of 190 nM.
